This note sets out measurements from patent EP1136552A1, “ATP binding cassette transporter 1 (ABC1) gene polymorphisms and uses thereof for the diagnosis and treatment of lipid disorders, cardiovascular diseases and inflammatory diseases” (Bayer Aktiengesellschaft, priority 2000, dated 2001).

In test [1] the test system is mononuclear phagocytes. Kind of test: ApoA-I mediated cholesterol efflux from cholesterol-loaded monocytes (14C-cholesterol). The format is cell-based, Human. The note with it: ApoA-I 10 µg/ml + 24 h pretreatment with forskolin 10 µM, percent of basal efflux, men and women. The procedure: Cellular Lipid Efflux. Human peripheral blood cells were isolated from lithium-heparin treated blood samples of adult, healthy volunteers. The peripheral blood mononuclear cell fraction was separated by density gradient centrifugation over Ficoll-Histopaque […] (Sigma). Cells positive for CD2, CD7, CD16, CD19 and CD56 were removed by appropriate magnetic beads (Dynal) leaving > 80% pure monocytes. Isolated monocytes were then cultured at a density of 1.5x10^5 cells/mL in polystyrene culture dishes (100x15mm Petri dish, Falcon) in a serum-free macrophage medium (Macrophage-SFM, Gibco Life Technologies) supplemented with 50ng/mL human recombinant M-CSF (R&D Systems). After an overnight incubation cells were cholesterol loaded for 24 hrs by addition of enzymatically modified LDL (E-LDL; 40 µg/ml), which was prepared as previously described (31). […] Lipids were extracted by liquid extraction according to the method of Bligh and Dyer (13). ^3H and ^14C radioactivities of the total lipid extracts were measured by liquid scintillation counting in order to distinguish between ^3H labeled phospholipids and ^14C-cholesterol. Lipid efflux was calculated as percentage of disintegrations per minute (dpm) in medium divided by the sum of dpm recovered from medium and cells. […]

Test [2] concerns mononuclear phagocytes. Put plainly: ApoA-I mediated efflux of choline containing phospholipids from monocytes (3H-choline). It counts as cell-based, Human. The settings on record: ApoA-I 10 µg/ml + 24 h pretreatment with forskolin 10 µM, percent of basal efflux, men and women. The procedure:
Cellular Lipid Efflux. Human peripheral blood cells were isolated from lithium-heparin treated blood samples of adult, healthy volunteers. The peripheral blood mononuclear cell fraction was separated by density gradient centrifugation over Ficoll-Histopaque […] (Sigma). Cells positive for CD2, CD7, CD16, CD19 and CD56 were removed by appropriate magnetic beads (Dynal) leaving > 80% pure monocytes. Isolated monocytes were then cultured at a density of 1.5x10^5 cells/mL in polystyrene culture dishes (100x15mm Petri dish, Falcon) in a serum-free macrophage medium (Macrophage-SFM, Gibco Life Technologies) supplemented with 50ng/mL human recombinant M-CSF (R&D Systems). After an overnight incubation cells were cholesterol loaded for 24 hrs by addition of enzymatically modified LDL (E-LDL; 40 µg/ml), which was prepared as previously described (31). The incubation medium was further supplemented with ^14C-cholesterol (1.5 µCi/ml) and ^3H-choline (10µCi/ml) in order to label cellular cholesterol and choline containing phospholipids. In a subset of experiments cells were stimulated with 10 µM forskolin during the labeling period. After 24 hrs monocytes were washed and incubated for 17 hrs with or without 10 µg/ml ApoA-I (Sigma) in macrophage medium containing 0.1 % bovine serum albumin and 50ng/mL M-CSF. After incubation the media were removed and centrifuged at 800 x g to precipitate any detached cells. Cells were lysed in 0.2% SDS. Lipids were extracted by liquid extraction according to the method of Bligh and Dyer (13). ^3H and ^14C radioactivities of the total lipid extracts were measured by liquid scintillation counting in order to distinguish between ^3H labeled phospholipids and ^14C-cholesterol. Lipid efflux was calculated as percentage of disintegrations per minute (dpm) in medium divided by the sum of dpm recovered from medium and cells. The ApoA-I specific efflux is expressed a percent of basal unstimulated efflux observed in serum-free macrophage medium without ApoA-I. Statistical Analysis. […]

A further test has as its system neutral sphingomyelinase. Put plainly: Ceramide formation from sphingomyelin. The format is cell-based.
A further test has as its system IL-1β. Put plainly: Inhibition of pro-IL-1β processing and IL-1β release. The format is cell-based.
For the next test, the system named is human fibroblasts. Kind of test: G2-phase cell cycle arrest in fibroblasts. The format is cell-based.

The structures appear in SMILES notation.

As for `C=C[C@@]1(C)CC(=O)[C@]2(O)[C@@]3(C)[C@@H](O)CCC(C)(C)[C@@H]3[C@H](O)[C@H](OC(C)=O)[C@@]2(C)O1` [forskolin], the Cholesterol efflux in the test on mononuclear phagocytes [1] (596A/A) is 126.7 ± 37.4%; with mononuclear phagocytes [1] (wt/wt 596G/G, 2589A/A) it was 121.8 ± 16.4%. For the same compound, the Phospholipid efflux in the test with mononuclear phagocytes [2] (596A/A) was 136.7 ± 12.8%; with mononuclear phagocytes [2] (2589G/G) it was 124.5 ± 25.8%; in the test on mononuclear phagocytes [2] (wt/wt 596G/G, 2589A/A), 135.4 ± 20.2%.

Take `COc1ccc(Cl)cc1C(=O)NCCc1ccc(S(=O)(=O)NC(=O)NC2CCCCC2)cc1` [glyburide]: the “ceramide formation from sphingomyelin mediated by neutral sphingomyelinase” value in the test with neutral sphingomyelinase was “inhibits”. In the test with IL-1β, the “Caspase I mediated processing of pro-IL-1β and release of mature IL-1β” value is “inhibits”. The “G2-phase cell cycle arrest” value with human fibroblasts is on record as “releases human fibroblasts from G2-phase cell cycle arrest”.
